This passage reports pest or weed control, melting point and inhibition results from US10653146B2, “Microbiocidal oxadiazole derivatives” (SYNGENTA PARTICIPATIONS AG, priority 2016, dated 2020).

Each structure is given as a SMILES string. Some results are limits rather than exact numbers.

By melting point is commonly meant the temperature, or range, at which the solid turns liquid. Broadly, the inhibition is the percentage by which the read-out fell short of the control.

The test system of data set [1] is Puccinia recondite f. Sp. Tritici. Nature of the data set: Fungicidal activity against Puccinia recondite f. sp. tritici / wheat / leaf disc curative (brown rust). It is filed as in vivo. The conditions noted are these: foliar, 200 ppm in the applied formulation, wheat leaf segments cv. Kanzler, applied 1 day after inoculation, assessed 6 to 8 days after application, read-out: disease control compared to untreated control leaf disks. How it is done: (§1) Leaf disks or leaf segments of various plant species are cut from plants grown in a greenhouse. The cut leaf disks or segments are placed in multiwell plates (24-well format) onto water agar. The leaf disks are sprayed with a test solution before (preventative) or after (curative) inoculation. Compounds to be tested are prepared as DMSO solutions (max. 10 mg/ml) which are diluted to the appropriate concentration with 0.025% Tween20 just before spraying. The inoculated leaf disks or segments are incubated under defined conditions (temperature, relative humidity, light, etc.) according to the respective test system. A single evaluation of disease level is carried out 3 to 14 days after inoculation, depending on the pathosystem. Percent disease control relative to the untreated check leaf disks or segments is then calculated.
Wheat leaf segments cv. Kanzler are placed on agar in multiwell plates (24-well format). The leaf segments are then inoculated with a spore suspension of the fungus. Plates were stored in darkness at 19° C. and 75% relative humidity. The formulated test compound diluted in water was applied 1 day after inoculation. The leaf segments were incubated at 19° C. and 75% relative humidity under a light regime of 12 hours light/12 hours darkness in a climate cabinet and the activity of a compound was assessed as percent disease control compared to untreated when an appropriate level of disease damage appears in untreated check leaf segments (6 to 8 days after application).
(§2) The following compounds at 200 ppm in the applied formulation give at least 80% disease control in this test when compared to untreated control leaf disks under the same conditions, which show extensive disease development.

For data set [2], the system named is Glomerella lagenarium (Colletotrichum lagenarium). Nature of the data set: Fungicidal activity against Glomerella lagenarium (Colletotrichum lagenarium) liquid culture / cucumber / preventative (anthracnose). The class given is cell-based. The conditions noted are these: Colletotrichum orbiculare; 20 ppm in the applied formulation; liquid culture in PDB, 24° C.; 3 to 4 days after application; read-out: disease control compared to untreated control (inhibition of growth measured photometrically). As to the method:
Mycelia fragments or conidia suspensions of a fungus prepared either freshly from liquid cultures of the fungus or from cryogenic storage, are directly mixed into nutrient broth. DMSO solutions of the test compound (max. 10 mg/ml) are diluted with 0.025% Tween20 by a factor of 50 and 10 μl of this solution is pipetted into a microtiter plate (96-well format). The nutrient broth containing the fungal spores/mycelia fragments is then added to give an end concentration of the tested compound. The test plates are incubated in the dark at 24° C. and 96% relative humidity. The inhibition of fungal growth is determined photometrically after 2 to 7 days, depending on the pathosystem, and percent antifungal activity relative to the untreated check is calculated.
Conidia of the fungus from cryogenic storage are directly mixed into nutrient broth (PDB—potato dextrose broth). After placing a (DMSO) solution of test compound into a microtiter plate (96-well format), the nutrient broth containing the fungal spores is added. The test plates are incubated at 24° C. and the inhibition of growth is measured photometrically 3 to 4 days after application.
The following compounds at 20 ppm in the applied formulation give at least 80% disease control in this test when compared to untreated control under the same conditions, which show extensive disease development.

The test system of data set [3] is Puccinia recondita f. Sp. Tritici. Nature of the data set: Fungicidal activity against Puccinia recondita f. sp. tritici / wheat / leaf disc preventative (brown rust). The note with it: foliar, 200 ppm in the applied formulation, wheat leaf segments cv. Kanzler, inoculated 1 day after application, assessed 7 to 9 days after application, read-out: disease control compared to untreated control leaf disks. It is filed as in vivo. How it is done:
as §1, with “calculated. Wheat leaf segments cv. Kanzler were placed on agar in multiwell plates (24-well format) and sprayed with the formulated test compound diluted in water. The leaf disks were inoculated with a spore suspension of the fungus 1 day after application. The inoculated leaf segments were incubated at 19° C. and 75% relative humidity (rh) under a light regime of 12 hours light/12 hours darkness in a climate cabinet and the activity of a compound was assessed as percent disease control compared to untreated when an appropriate level of disease damage appears in untreated check leaf segments (7 to 9 days after application). The following compounds at 200 ppm in the applied formulation give at least 80% disease control in this test when compared to untreated control leaf disks under the same conditions, which show extensive disease development.” for “calculated.”

The subject of a further data set is Phakopsora pachyrhizi. Nature of the data set: Fungicidal activity against Phakopsora pachyrhizi / soybean / leaf disc preventative (Asian soybean rust). The class given is in vivo. The conditions noted are these: foliar, 200 ppm in the applied formulation, soybean leaf disks, inoculated one day after application, assessed 12 to 14 days after application, read-out: disease control compared to untreated control leaf disks. How it is done: as §1
Soybean leaf disks are placed on water agar in multiwell plates (24-well format) and sprayed with the formulated test compound diluted in water. One day after application leaf discs are inoculated by spraying a spore suspension on the lower leaf surface. After an incubation period in a climate cabinet of 24-36 hours in darkness at 20° C. and 75% rh leaf disc are kept at 20° C. with 12 h light/day and 75% rh. The activity of a compound is assessed as percent disease control compared to untreated when an appropriate level of disease damage appears in untreated check leaf disks (12 to 14 days after application).
as §2

With `O=C(NCc1ccccc1F)C(=O)c1ccc(-c2noc(C(F)(F)F)n2)cc1` [Compound 1.26, N-[(2-fluorophen-yl)methyl]-2-oxo-2-[4-[5-(trifluoromethyl)-1,2,4-oxadiazol-3-yl]phenyl]acetamide], the melting point lay in the range of 84 to 86 °C. Also, the pest or weed control at 200 ppm in data set [1] is ≥ 80%. Moreover, the inhibition at 20 ppm in data set [2] was ≥ 80%. Moreover, in data set [3], the pest or weed control at 200 ppm is ≥ 80%.
Molecule `O=C(NC1COC1)C(=O)c1ccc(-c2noc(C(F)(F)F)n2)cc1` [Compound 1.27, N-(oxetan-3-yl)-2-oxo-2-[4-[5-(trifluoromethyl)-1,2,4-oxadiazol-3-yl]phenyl]acetamide] gave a melting point of 131 to 136 °C. The pest or weed control at 200 ppm in data set [1] was ≥ 80%. Further, the inhibition at 20 ppm in data set [2] is ≥ 80%. In addition, the pest or weed control at 200 ppm in data set [3] is ≥ 80%.
The molecule `O=C(NC1CC1)C(=O)c1ccc(-c2noc(C(F)(F)F)n2)cc1` [Compound 1.16, N-cyclopropyl-2-oxo-2-[4-[5-(trifluoromethyl)-1,2,4-oxadiazol-3-yl]phenyl]acetamide] showed a melting point of 113.1 to 116 °C. Moreover, the pest or weed control at 200 ppm in data set [1] is ≥ 80%. Also, the inhibition at 20 ppm in data set [2] is ≥ 80%. Moreover, the pest or weed control at 200 ppm in data set [3] is ≥ 80%.
Take `CC(C)CNC(=O)C(=O)c1ccc(-c2noc(C(F)(F)F)n2)cc1` [Compound 1.15, N-isobutyl-2-oxo-2-[4-[5-(trifluoromethyl)-1,2,4-oxadiazol-3-yl]phenyl]acetamide]: the melting point was 83 to 85.3 °C. Further, in data set [1], the pest or weed control at 200 ppm was ≥ 80%. The inhibition at 20 ppm in data set [2] is ≥ 80%. Also, the pest or weed control at 200 ppm in data set [3] was ≥ 80%.
For `CNC(=O)C(=O)c1ccc(-c2noc(C(F)(F)F)n2)cc1` [Compound 1.17, N-methyl-2-oxo-2-[4-[5-(trifluoromethyl)-1,2,4-oxadiazol-3-yl]phenyl]acetamide], the melting point lay within 128.1 to 130.8 °C. Further, the pest or weed control at 200 ppm in data set [1] was ≥ 80%. The inhibition at 20 ppm in data set [2] is ≥ 80%. The pest or weed control at 200 ppm in data set [3] is ≥ 80%.
Regarding `CCCNC(=O)C(=O)c1ccc(-c2noc(C(F)(F)F)n2)cc1` [Compound 1.42, 2-oxo-N-propyl-2-[4-[5-(trifluoromethyl)-1,2,4-oxadiazol-3-yl]phenyl]acetamide], the pest or weed control at 200 ppm (in data set [1]; in data set [3]; in the data set on Phakopsora pachyrhizi) was ≥ 80% throughout. In addition, in data set [2], the inhibition at 20 ppm is ≥ 80%.
`CC(C)NC(=O)C(=O)c1ccc(-c2noc(C(F)(F)F)n2)cc1` [Compound 1.13, N-isopropyl-2-oxo-2-[4-[5-(trifluoromethyl)-1,2,4-oxadiazol-3-yl]phenyl]acetamide] had a melting point of 96 to 97.7 °C. Further, in data set [1], the pest or weed control at 200 ppm was ≥ 80%. In addition, in data set [2], the inhibition at 20 ppm was ≥ 80%. The pest or weed control at 200 ppm in data set [3] is ≥ 80%.
Regarding `O=C(C(=O)N1CCCC1)c1ccc(-c2noc(C(F)(F)F)n2)cc1` [Compound 1.20, 1-pyrrolidin-1-yl-2-[4-[5-(trifluoromethyl)-1,2,4-oxadiazol-3-yl]phenyl]ethane-1,2-dione], the melting point was in the range of 104 to 110 °C. Also, in data set [1], the pest or weed control at 200 ppm was ≥ 80%. Moreover, the inhibition at 20 ppm in data set [2] was ≥ 80%. Further, in data set [3], the pest or weed control at 200 ppm is ≥ 80%.
`CCCCNC(=O)C(=O)c1ccc(-c2noc(C(F)(F)F)n2)cc1` [Compound 1.12, N-butyl-2-oxo-2-[4-[5-(trifluoromethyl)-1,2,4-oxadiazol-3-yl]phenyl]acetamide] had a melting point of 65.1 to 68.2 °C. Also, the pest or weed control at 200 ppm in data set [1] is ≥ 80%. Further, the inhibition at 20 ppm in data set [2] is ≥ 80%. Besides, the pest or weed control at 200 ppm in data set [3] was ≥ 80%.
In turn, `N#CCNC(=O)C(=O)c1ccc(-c2noc(C(F)(F)F)n2)cc1` [Compound 1.14, N-(cyanomethyl)-2-oxo-2-[4-[5-(trifluoromethyl)-1,2,4-oxadiazol-3-yl]phenyl]acetamide] came in with a melting point of 143.6 to 147.6 °C. For the same molecule, the pest or weed control at 200 ppm in data set [1] is ≥ 80%. For the same molecule, the inhibition at 20 ppm in data set [2] was ≥ 80%. The pest or weed control at 200 ppm in data set [3] was ≥ 80%.
`O=C(NCCO)C(=O)c1ccc(-c2noc(C(F)(F)F)n2)cc1` [Compound 1.1, N-(2-hydroxy-ethyl)-2-oxo-2-[4-[5-(trifluoromethyl)-1,2,4-oxadiazol-3-yl]phenyl]acetamide]: the melting point was in the range of 147 to 148 °C. In addition, the pest or weed control at 200 ppm in data set [1] is ≥ 80%. In data set [2], the inhibition at 20 ppm was ≥ 80%. In data set [3], the pest or weed control at 200 ppm is ≥ 80%.
`CNC(=O)CNC(=O)C(=O)c1ccc(-c2noc(C(F)(F)F)n2)cc1` [Compound 1.7, N-[2-(methyl-amino)-2-oxo-ethyl]-2-oxo-2-[4-[5-(trifluoromethyl)-1,2,4-oxadiazol-3-yl]phenyl]acetamide] registered a melting point of 167 to 168 °C. In data set [1], the pest or weed control at 200 ppm is ≥ 80%. The inhibition at 20 ppm in data set [2] was ≥ 80%. Also, in data set [3], the pest or weed control at 200 ppm was ≥ 80%.
For the molecule `O=C(C(=O)N1CCOCC1)c1ccc(-c2noc(C(F)(F)F)n2)cc1` [Compound 1.35, 1-morpholino-2-[4-[5-(trifluoromethyl)-1,2,4-oxadiazol-3-yl]phenyl]ethane-1,2-dione], the melting point was in the range of 140 to 144 °C. The pest or weed control at 200 ppm in data set [1] was ≥ 80%. Besides, the inhibition at 20 ppm in data set [2] is ≥ 80%. Besides, the pest or weed control at 200 ppm in data set [3] was ≥ 80%.
The molecule `NC(=O)C(=O)c1ccc(-c2noc(C(F)(F)F)n2)cc1` [Compound 1.18, 2-oxo-2-[4-[5-(trifluoromethyl)-1,2,4-oxadiazol-3-yl]phenyl]acetamide] registered a melting point of 146.7 to 149.7 °C. The pest or weed control at 200 ppm in data set [1] is ≥ 80%. Besides, the inhibition at 20 ppm in data set [2] was ≥ 80%. Moreover, in data set [3], the pest or weed control at 200 ppm was ≥ 80%.
On to `CN(C)NC(=O)C(=O)c1ccc(-c2noc(C(F)(F)F)n2)cc1` [Compound 1.19, N′,N′-dimethyl-2-oxo-2-[4-[5-(trifluoromethyl)-1,2,4-oxadiazol-3-yl]phenyl]aceto-hydrazide], for which the melting point is 134 to 138 °C. Further, the pest or weed control at 200 ppm in data set [1] is ≥ 80%. Also, the inhibition at 20 ppm in data set [2] was ≥ 80%. In data set [3], the pest or weed control at 200 ppm was ≥ 80%.
